Measured values: patent publication US20140274978A1, “Phytosterol spirostane and spirostene derivatives having a wide variety of utilities in humans and other animals” (priority 2013, published 2014)
Where two headings read alike, the source gives them in different places.

Columns and labels:
[1] = Oral 5-androsten-3β,17β-diol-7-one diacetate with weight resistance training; assay type: in vivo, humans
Description: Human volunteers familiar with conventional anabolic steroids used 60 mg/day (20 mg tid) 5-androsten-3β,17β-diol-7-one diacetate orally, in conjunction with weight resistance training.

[2] = Synergy of 7-keto-diosgenin with laxogenin and/or 5-hydroxy laxogenin (inventor's finding); conditions: 1:1 ratio found effective
[3] = Physical stamina and endurance of hunting dogs; assay type: in vivo; conditions: 5-10 mg/day
From the text: The compounds of invention are also useful for increasing physical stamina and endurance in young working and sporting dogs used for hunting, sled pulling and herding and dogs in competitions such as greyhound racing, field trials, agility, disc dog, dock jumping and Schutzhund.

[4] = Oral administration to older dogs (vigor, health); assay type: in vivo; conditions: for activity, stamina, appetite, stiffness, overall health reported by pet owners / lean muscle mass and body fat: dogs of 7-14 years of age; for activity, stamina, appetite, stiffness, overall health reported by pet owners: 1-10 mg/day in two divided doses; for lean muscle mass and body fat: over 2-3 months administration; for behavior of ailing dogs / age lived to: two Rhodesian Ridgeback dogs; for behavior of ailing dogs: age 13, failure to thrive; for age lived to: daily dosages from age 13
From the text: Their appetite and activity increased, they became leaner—leaner muscle, wanted to go for walks and became like a new dog. They lived another 3 years on a daily dosages to age 16. Their treating Veterinarian said he had never seen dogs of their size and breed live to such an advanced age. Numerous similar reports were collected.
See Kokl. Akad. Nauk. Uzb., SSR, 1981, v.3, pp. 31-33. See also Farmakol. Toksikol., 1976, 39(5), pp. 631-35.

[5] = Topical lotion on severely atrophic skin of an elderly person; assay type: in vivo, humans; conditions: atrophic skin of hands; for skin elasticity and strength: after one month; for traumatic purpurra and venous lakes: two months
From the text: Phytosterol derivative compounds of the present invention are also useful as skin agents for animals and useful as cosmetic agents when formulated in preparations which, when applied to the skin, create a penetrating flux that will deliver the compound to both the epidermis and dermis. The preferred lotion formulations are of low irritancy and are generally comprised of either a spirostane or a spirostene or, preferably for synergistic reasons, a combination of both [0.05-0.2% (w/w) combined in a ratio of 2:1 to 1:2] dissolved in a solution consisting of propylene glycol [50-70% (w/w)]. propylene carbonate [15-25% (w/w)], water [10-20% (w/w)], and glycerol [0.12.0% (w/w)]. The steroid solutions are most preferably formulated at 80-90% saturation.
The compounds of invention, when formulated as above, are useful for reversing many aspects of degenerative skin disorders (such as thin, fragile, inelastic skin and weakened dermal blood vessels) due to various causes such as aging or chronic corticosteroid therapy.

[6] = Laxogenin in a person with double knee replacement (pain, recovery); assay type: in vivo, humans
Description: The compounds of the present invention also have the ability to mediate and/or reduce pain in humans and other animals. A person received a double knee replacement due to long time injuries. They began taking 3 doses per day of Laxogenin at 150 mg per dose one week prior to knee surgery.

protein synthesis = conditions: cited from earlier work; for sensitivity of protein stimulation to actinomycin D: Russian report, Biol. Nauki 1984
estrogen receptors = experiment: Competitive binding inhibition studies (Baylor University), estrogen receptors; conditions: even at the limits of compound solubility
From the text: (§1) Consequently, the spirostane and spirostene compounds of the present invention are expected to be devoid of hormonal activity.

[7] = cited from earlier work
[8] = Oral administration to aging human volunteers (energy, stamina, sleep); assay type: in vivo, humans
Description: The spirostanic compounds of the invention are also useful in increasing and restoring health and vigor, useful in preventing fatigue, and useful in improving physical condition and performance and increasing work output in aging humans and other mammals. For example, 15 mg of 25R-Spirostan-3B, 5α-diol-6-one was given to a person in three divided doses per day (t.i.d.) for two weeks.
15 mg of 25R-Spirostan-3B, 5α-diol-6-one was given to a person in three divided doses per day (t.i.d.) for two weeks.

androgen receptors = target: T1, androgen receptors (Homo sapiens, UniProt P10275); experiment: Competitive binding inhibition studies (Baylor University), androgen receptors; conditions: even at the limits of compound solubility
T1 sequence (P10275 1-920): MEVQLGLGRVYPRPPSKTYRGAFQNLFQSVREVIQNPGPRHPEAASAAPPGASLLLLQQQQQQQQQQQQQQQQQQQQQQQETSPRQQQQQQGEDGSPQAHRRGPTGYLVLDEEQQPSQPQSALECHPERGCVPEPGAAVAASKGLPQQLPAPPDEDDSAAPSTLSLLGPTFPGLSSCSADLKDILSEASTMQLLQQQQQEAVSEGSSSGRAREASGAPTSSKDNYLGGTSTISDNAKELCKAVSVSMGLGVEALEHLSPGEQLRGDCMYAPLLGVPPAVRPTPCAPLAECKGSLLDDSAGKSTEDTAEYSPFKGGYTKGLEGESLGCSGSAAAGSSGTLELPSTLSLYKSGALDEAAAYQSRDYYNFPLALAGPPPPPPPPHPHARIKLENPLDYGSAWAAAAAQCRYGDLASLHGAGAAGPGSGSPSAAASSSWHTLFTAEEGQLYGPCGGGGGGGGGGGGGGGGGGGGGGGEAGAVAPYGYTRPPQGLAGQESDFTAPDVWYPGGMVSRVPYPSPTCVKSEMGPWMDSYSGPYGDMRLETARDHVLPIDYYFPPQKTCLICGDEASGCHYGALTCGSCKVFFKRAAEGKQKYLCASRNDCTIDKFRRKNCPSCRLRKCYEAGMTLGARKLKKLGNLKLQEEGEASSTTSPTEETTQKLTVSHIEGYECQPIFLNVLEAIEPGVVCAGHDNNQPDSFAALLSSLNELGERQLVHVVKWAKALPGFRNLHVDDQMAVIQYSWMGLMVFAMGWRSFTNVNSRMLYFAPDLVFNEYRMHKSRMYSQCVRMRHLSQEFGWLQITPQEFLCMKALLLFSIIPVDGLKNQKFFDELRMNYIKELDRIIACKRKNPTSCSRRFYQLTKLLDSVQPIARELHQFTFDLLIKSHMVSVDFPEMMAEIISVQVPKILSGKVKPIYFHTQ
From the text: as §1

[9] = Life span of a Great Dane on daily administration; assay type: in vivo, dogs; conditions: 8 mg/day from age 8, upper limit for lineage 10 years
Description: The compounds of invention are also useful for lengthening the life span of various large breeds of dogs (and presumably small breeds). One Great Dane. given 25R-Spirostan-3B, 5α-diol-6-one daily (8 mg/day) from age 8 on. lived to be almost 13 years old. The dog had to be euthanized because it suffered from dysplasia in both hips; otherwise it was healthy and active. The upper limit of age for Great Danes of this lineage was previously considered to be 10 years.
A Great Dane that was given 25R-Spirostan-3B, 5α-diol-6-one daily (8 mg/day) from age 8 on lived to be almost 13 years old. The dog had to be euthanized because it suffered from dysplasia in both hips; otherwise it was healthy and active. The upper limit of age for Great Danes of this particular lineage was previously considered to be 10 years.

[10] = 3 grams/day for 30 days, humans; cited from earlier work
[11] = rat, in vivo, 25 mg/kg; cited from earlier work
[12] = labeled ecdysterone 50 mg/kg, mice; cited from earlier work
[13] = 15 mg in three divided doses per day, two weeks, person

CC(=O)O[C@H]1CC[C@@]2(C)C(=CC(=O)[C@H]3[C@@H]4CC[C@H](OC(C)=O)[C@@]4(C)CC[C@@H]32)C1 [5-androsten-3β,17β-diol-7-one diacetate]
androgenic side-effects ([1]; 60 mg/day (20 mg tid) orally): No subject reported any noticeable androgenic side-effects | strength, endurance and muscle mass accretion ([1]; 60 mg/day (20 mg tid) orally with weight resistance training): increases in strength and endurance as well as accelerated increases in muscle mass accretion

C[C@@H]1CC[C@@]2(OC1)O[C@H]1C[C@H]3[C@@H]4C(=O)C=C5C[C@@H](O)CC[C@]5(C)[C@H]4CC[C@]3(C)[C@H]1[C@@H]2C [7-keto-diosgenin, 5,25R-spirosten-3β-ol-7-one]
synergy with laxogenin and/or 5-hydroxy laxogenin [2]: unexpectedly synergistic | physical stamina and endurance [3]: noticeable improvement in their dogs physical stamina and endurance within one week | activity, stamina, appetite, stiffness, overall health reported by pet owners [4]: increased activity, playfulness, physical stamina, appetite and interaction with owners, reduced stiffness and weakness, and improved overall health | lean muscle mass and body fat [4]: increased many of the dogs' lean muscle mass while reducing body fat | behavior of ailing dogs [4]: started to exhibit puppy like behavior after 48 hours | age lived to [4]: 16 | skin elasticity and strength [5]: dramatic increases in skin elasticity and strength | traumatic purpurra and venous lakes [5]: Virtually all traumatic purpurra and venous lakes were resolved within two months

C[C@@H]1CC[C@@]2(OC1)O[C@H]1C[C@H]3[C@@H]4CC(=O)[C@H]5C[C@@H](O)CC[C@]5(C)[C@H]4CC[C@]3(C)[C@H]1[C@@H]2C [Laxogenin, (25R)-3β-hydroxy-5α-spirostan-6-one]
pain before surgery ([6]; 3 doses per day at 150 mg per dose, started one week prior to knee surgery): pain had diminished their third day | standing and walking ([6]; 7th day after surgery): could stand and walk far distances free of pain, stiffness and discomfort | need for morphine drip ([6]; day after operation): able to discontinue their morphine drip altogether | surface inflammation and scarring ([6]; liquid version applied topically): reduced surface inflammation and scarring greatly | behavior of ailing dogs [4]: started to exhibit puppy like behavior after 48 hours | age lived to [4]: 16

CC(C)(O)CC[C@@H](O)[C@](C)(O)[C@H]1CC[C@@]2(O)C3=CC(=O)[C@@H]4C[C@@H](O)[C@@H](O)C[C@]4(C)[C@H]3[C@H](O)C[C@]12C [turkesterone]
sensitivity of protein stimulation to actinomycin D (protein synthesis): completely insensitive to actinomycin D

C[C@@H]1CC[C@@]2(OC1)O[C@H]1C[C@H]3[C@@H]4CC(=O)[C@@]5(O)C[C@@H](O)CC[C@]5(C)[C@H]4CC[C@]3(C)[C@H]1[C@@H]2C [25R-Spirostan-3B, 5α-diol-6-one, (25R)-spirostan-3β-5α-diol-6-one]
binding to estrogen receptors (estrogen receptors): did not bind | anabolic activity in older (mature) rats ([7]; older (i.e. mature) rats): reduced anabolic activity | anabolic activity in young rats ([7]; young rats): higher anabolic activity | length of time able to work in garden [8, 13]: 2-3 times | well-being, energy and physical stamina [8, 13]: overall increase in well-being, accompanied by a definite increase in energy and physical stamina | total sleep time ([8]; 60 mg/day, over one month, increased from 6 hrs/night): approximately 8 hrs/night | physical energy and stamina ([8]; 60 mg/day, person and person): definite increases in physical energy and stamina within one week | physical stamina and endurance [3]: noticeable improvement in their dogs physical stamina and endurance within one week | binding to androgen receptors (androgen receptors): did not bind | activity, stamina, appetite, stiffness, overall health reported by pet owners [4]: increased activity, playfulness, physical stamina, appetite and interaction with owners, reduced stiffness and weakness, and improved overall health | lean muscle mass and body fat [4]: increased many of the dogs' lean muscle mass while reducing body fat | skin elasticity and strength [5]: dramatic increases in skin elasticity and strength | traumatic purpurra and venous lakes [5]: Virtually all traumatic purpurra and venous lakes were resolved within two months | age lived to [9]: ~13 years

C[C@@H]1CC[C@@]2(OC1)O[C@H]1C[C@H]3[C@@H]4CC=C5C[C@@H](O)CC[C@]5(C)[C@H]4CC[C@]3(C)[C@H]1[C@@H]2C [diosgenin]
metabolism in the B-ring [10]: not metabolized in the B-ring | serum half-life [11]: approximately 14 hours

CC(C)(O)CC[C@@H](O)[C@](C)(O)[C@H]1CC[C@@]2(O)C3=CC(=O)[C@@H]4C[C@@H](O)[C@@H](O)C[C@]4(C)[C@H]3CC[C@]12C [ecdysterone, 20-Hydroxyecdysone]
serum half-life [12]: 8.15 min | repression of induced protein synthesis by actinomycin D (protein synthesis; Japanese report, Chem. Pharm. Bull. 1969): partially repressed | sensitivity of protein stimulation to actinomycin D (protein synthesis): completely insensitive to actinomycin D
